# Test results reported in patent US6403602B1 (priority 1997, dated 2002).
# Where a name gives a salt, the structure may show the parent alone. Read-outs that look alike come from different tables or passages of the source.
# What was measured:
# [1] = test system: electrically stimulated mouse vas deferens; experiment: tissue or blood; format: cell-based
# κ2 sites = format: binding, guinea pig
# [2] = test system: electrically stimulated guinea pig ileum; experiment: tissue or blood; format: cell-based
# mu receptors = format: cell-based, guinea pig
# delta receptors [3] = biological target: T1, delta receptors (Mus musculus, UniProt P32300); format: cell-based
# T1 construct: The vas deferens from Swiss-Webster mice (30-35 g) were prepared as described by Hughes et al; from tissue; host or cells: mouse vas deferens (Swiss-Webster)
# T1 sequence (P32300 whole entry): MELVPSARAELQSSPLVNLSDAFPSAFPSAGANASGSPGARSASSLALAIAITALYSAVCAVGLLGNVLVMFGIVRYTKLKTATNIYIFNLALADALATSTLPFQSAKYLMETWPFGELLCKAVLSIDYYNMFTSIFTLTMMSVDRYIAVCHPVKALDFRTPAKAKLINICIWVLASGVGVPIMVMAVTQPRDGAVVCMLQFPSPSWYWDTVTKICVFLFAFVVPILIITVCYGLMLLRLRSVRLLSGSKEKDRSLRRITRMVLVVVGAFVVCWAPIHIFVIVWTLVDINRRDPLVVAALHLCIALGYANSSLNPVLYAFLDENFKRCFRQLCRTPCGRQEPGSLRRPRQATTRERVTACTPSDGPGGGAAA
# delta receptors [4] = biological target: T2, delta receptors (Cavia porcellus, UniProt A0A286XTF2); experiment: biochemical; format: binding, guinea pig
# T2 construct: The brains were then homogenized in 50 mM Tris HCl, buffer pH 7.7, using a Polytron; from tissue; host or cells: guinea pig brain homogenate (membrane pellet)
# T2 sequence (A0A286XTF2 1-366): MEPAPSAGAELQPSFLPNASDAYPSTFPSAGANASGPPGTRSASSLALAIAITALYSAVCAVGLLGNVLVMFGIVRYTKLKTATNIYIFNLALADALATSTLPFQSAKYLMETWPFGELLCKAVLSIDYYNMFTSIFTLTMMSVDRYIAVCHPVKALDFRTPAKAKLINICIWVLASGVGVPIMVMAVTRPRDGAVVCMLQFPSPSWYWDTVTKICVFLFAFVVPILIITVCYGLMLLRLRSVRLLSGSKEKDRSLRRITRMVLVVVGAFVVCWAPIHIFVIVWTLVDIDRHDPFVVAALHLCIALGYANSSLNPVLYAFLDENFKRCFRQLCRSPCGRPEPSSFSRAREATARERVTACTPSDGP
# mu opioid receptors = mu opioid receptors (Cavia porcellus, UniProt A0ACM8Q262); format: binding, guinea pig; details: read-out: Ki μ [^3H]DAMGO
# Sequence of mu opioid receptors (A0ACM8Q262 1-400): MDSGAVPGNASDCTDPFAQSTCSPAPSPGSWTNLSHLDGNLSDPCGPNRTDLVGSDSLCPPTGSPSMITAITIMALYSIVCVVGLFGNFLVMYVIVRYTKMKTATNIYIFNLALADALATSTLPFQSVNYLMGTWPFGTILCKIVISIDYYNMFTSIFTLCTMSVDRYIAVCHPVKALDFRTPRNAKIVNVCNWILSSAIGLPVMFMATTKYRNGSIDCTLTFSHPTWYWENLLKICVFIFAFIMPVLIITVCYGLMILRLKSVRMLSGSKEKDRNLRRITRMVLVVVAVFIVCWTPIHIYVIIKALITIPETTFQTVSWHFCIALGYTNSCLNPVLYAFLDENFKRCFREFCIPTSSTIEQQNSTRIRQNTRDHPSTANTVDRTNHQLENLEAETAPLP
# kappa1 sites = biological target: T3, kappa1 sites (Cavia porcellus, UniProt P41144); experiment: biochemical; format: binding, guinea pig
# T3 construct: The brains were then homogenized in 50 mM Tris HCl, buffer pH 7.7, using a Polytron; from tissue; host or cells: guinea pig brain homogenate (membrane pellet)
# T3 sequence (P41144 whole entry): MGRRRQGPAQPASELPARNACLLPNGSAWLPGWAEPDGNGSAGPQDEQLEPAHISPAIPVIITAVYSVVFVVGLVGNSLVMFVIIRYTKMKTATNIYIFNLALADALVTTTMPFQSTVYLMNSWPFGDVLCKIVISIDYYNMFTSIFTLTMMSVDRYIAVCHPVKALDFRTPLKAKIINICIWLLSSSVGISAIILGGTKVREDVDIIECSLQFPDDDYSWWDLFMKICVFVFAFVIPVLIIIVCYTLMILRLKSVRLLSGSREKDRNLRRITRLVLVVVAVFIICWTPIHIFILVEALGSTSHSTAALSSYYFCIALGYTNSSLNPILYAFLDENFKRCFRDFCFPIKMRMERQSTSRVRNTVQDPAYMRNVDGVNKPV
# kappa3 receptors = format: binding, guinea pig; details: read-out: Ki κ3 [^3H]NalBzoH
# kappa receptors = biological target: T4, kappa receptors (Cavia porcellus, UniProt P41144); format: cell-based, guinea pig
# T4 construct: The longitudinal muscle with the myenteric plexus attached was gently separated from the underlying circular muscle; from tissue; host or cells: guinea pig ileum longitudinal muscle with myenteric plexus
# T4 sequence (P41144 whole entry): as above
# [5] = read-out: Mouse Vas Deferens IC50
# [6] = read-out: Guinea Pig Ileum IC50
# [7] = read-out: Ki δ, experiment done with [^3H]DPDPE
# [8] = read-out: IC50 (nM), Mouse Vas Deferens
# [9] = read-out: IC50 (nM), Guinea Pigs Ileum
# [10] = Mus musculus, read-out: Mouse vas deferens maximum inhibition
# [11] = Cavia porcellus, read-out: Guinea Pig Ileum IC50 (nM)
Compound,IC50 (κ2 sites) [nM],Guinea Pig Ileum DR with CTAP (mu receptors),Ki (mu opioid receptors) [nM],"Ki (kappa1 sites; read-out: Ki κ1 [^3H]U69,593) [nM]",Ki (kappa3 receptors) [nM],Ki (delta receptors [4]; [7]) [nM],Guinea Pig Ileum DR with Nor-BNI (kappa receptors),Guinea Pig Ileum Ke of Nor-BNI (kappa receptors),further results
"3-O-Acetyl-7,8-dihydromorphine-6-O-sulfate [NIDA # 20,265]",> 10000,6.03 ± 0.97,13.7,–,–,–,–,–,"IC50 [1, 5]: 1110 nM; IC50 [2, 6]: 37.7 ± 6.55 nM; Guinea Pig Ileum Ke of CTAP (mu receptors): 20.25 ± 3.92; Mouse Vas Deferens DR with Naltrindole (delta receptors [3]): 0.924 ± 0.64; Ki (delta receptors [4]; read-out: Ki δ [^3H]Cl-DPDPE): 325 nM"
"CCCN1CCCC(c2cccc(O)c2)C1 (single isomer, unassigned; (+)) [(+) 3-PPP-HCl]",> 10000,–,3450,388,782,> 10000,–,–,–
"CC1C2Cc3ccc(O)cc3C1(C)CCN2CC1CC1 (single isomer, unassigned; (+)) [(+) Cyclazocine]",> 10000,–,659,383,786,> 10000,–,–,–
"C=CCN1CC[C@@]2(C)c3cc(O)ccc3CC1[C@@H]2C.Cl (single isomer, unassigned; (-)) [(−) SKF 10,047-HCl]",132,0.44 ± 0.02,0.7,0.3,–,3.8,273.10,0.08 ± 0.01,"IC50 [2, 6]: 10.5 nM"
"CC[C@@]12CCN(CC3CC3)C(C(=O)c3ccc(O)cc31)[C@@H]2C (single isomer, unassigned; (-)) [(−)EKC]",25.2,–,0.4,–,3.9,–,–,–,"IC50 [1, 8]: 5.31 nM; IC50 [2, 9]: 0.15 nM; DR with CTAP (mu receptors): 0.62; DR with Naltrindole (delta receptors [3]): 0.90; Ki (delta receptors [4]; read-out: Ki δ [^3H]Cl-DPDPE): 2 nM"
CC(C)=CCN1CC[C@]2(C)c3cc(O)ccc3C[C@H]1[C@H]2C [(+) Pentazocine-succinate],5270,–,595,206,420,3480,–,–,–
"C=CCN1CC[C@@]2(C)c3cc(O)ccc3C[C@@H]1[C@@H]2C [(+) SKF 10,047-HCl]",> 10000,–,2120,2890,> 1000,> 10000,–,–,–
O=C1/C(=C/c2ccccc2)C[C@@]2(O)[C@H]3Cc4ccc(O)c5c4[C@@]2(CCN3CC2CC2)[C@H]1O5 [BNTX],822,–,1.9,7.1,–,–,–,–,–
"CCC(=O)Oc1ccc2c3c1O[C@H]1[C@@H](OS(=O)(=O)O)C=C[C@H]4[C@@H](C2)N(C)CC[C@@]341 [NIDA # 20,270, 3-O-Propionylmorphine-6-O-sulfate]",> 10000,–,–,–,19.9,–,1.26 ± 0.33,40.73,"Ki (kappa1 sites): 252 nM; inhibition at 20 µM [1, 10]: 20%; IC50 [2, 11]: 154 ± 48.6 nM; Guinea Pig Ileum Ke of CTAP (mu receptors): 37.58 ± 2.09; Guinea Pig Ileum Ratio (CTAP) (mu receptors): 0.515; Guinea Pig Ileum Ratio (Nor-BNI) (kappa receptors): 0.002; Ki (delta receptors [4]): 40 nM"
"CC(C)C(=O)Oc1ccc2c3c1O[C@H]1[C@@H](OS(=O)(=O)O)C=C[C@H]4[C@@H](C2)N(C)CC[C@@]341 [NIDA # 20,271, 3-O-Isobutyrylmorphine-6-O-sulfate]",> 10000,9.45 ± 4.31,–,–,266,–,1.38 ± 0.01,53.14 ± 1.30,"Ki (kappa1 sites): 4560 nM; inhibition at 100 µM [1, 10]: 38%; IC50 [2, 11]: 1960 nM; Guinea Pig Ileum Ke of CTAP (mu receptors): 13.55 ± 6.89; Guinea Pig Ileum Ratio (CTAP) (mu receptors): 1.427; Guinea Pig Ileum Ratio (Nor-BNI) (kappa receptors): 0.001; Ki (delta receptors [4]): 584 nM"
Oc1ccc2c3c1O[C@H]1c4oc5ccccc5c4C[C@@]4(O)[C@@H](C2)N(CC2CC2)CC[C@]314 [NTB],406,–,6.5,10.2,7.5,–,–,–,Ki (delta receptors [4]; read-out: Ki δ [^3H]Cl-DPDPE): 0.06 nM
"Oc1ccc2c3c1O[C@H]1c4[nH]c5c(c4C[C@@]4(O)[C@@H](C2)N(CC2CC2)CC[C@]314)C[C@@]1(O)[C@H]2Cc3ccc(O)c4c3[C@@]1(CCN2CC1CC1)[C@H]5O4 [Nor-BNI (HCl)2, nor-binaltorphimine]",37.5,–,–,0.3,15,–,–,–,Ki (delta receptors [4]): 6.3 nM
c1ccc(C2(N3CCCCC3)CCCCC2)cc1 [PCP-HCl],> 10000,–,> 10000,> 10000,> 10000,> 10000,–,–,–
c1csc(C2(N3CCCCC3)CCCCC2)c1 [TCP-HCl],> 10000,–,2200,2040,> 10000,> 10000,–,–,–
CC[C@H](C)[C@H](NC(=O)[C@H](C)NC(=O)[C@H](CC(N)=O)NC(=O)[C@H](CCCCN)NC(=O)[C@H](Cc1ccccc1)NC(=O)[C@H](CC(C)C)NC(=O)[C@@H](NC(=O)[C@@H](NC(=O)[C@H](CC(C)C)NC(=O)[C@@H]1CCCN1C(=O)[C@@H](NC(=O)[C@H](CCC(N)=O)NC(=O)[C@H](CO)NC(=O)[C@H](CCCCN)NC(=O)[C@H](CCC(=O)O)NC(=O)[C@H](CO)NC(=O)[C@@H](NC(=O)[C@H](CCSC)NC(=O)[C@H](Cc1ccccc1)NC(=O)CNC(=O)CNC(=O)[C@@H](N)Cc1ccc(O)cc1)[C@@H](C)O)[C@@H](C)O)C(C)C)[C@@H](C)O)C(=O)N[C@H](C(=O)N[C@@H](CCCCN)C(=O)N[C@@H](CC(N)=O)C(=O)N[C@@H](C)C(=O)N[C@@H](Cc1ccc(O)cc1)C(=O)N[C@@H](CCCCN)C(=O)N[C@@H](CCCCN)C(=O)NCC(=O)N[C@@H](CCC(=O)O)C(=O)O)[C@@H](C)CC [β-Endorphin-OH],2050,5.86,–,–,14.5,–,4.24,6.98,"IC50 [1, 5]: 68 nM; IC50 [2, 6]: 59.4 nM; Guinea Pig Ileum Ke of CTAP (mu receptors): 20.87; Mouse Vas Deferens DR with Naltrindole (delta receptors [3]): 7.98; Mouse Vas Deferens Ke of Naltrindole (delta receptors [3]): 0.156 ± 0.05"
(−) Pentazocine-succinate,424,0.73 ± 0.38,5.7,4.4,12.4,–,6.10,4.00 ± 0.8,"IC50 [2, 6]: 170 nM"
Dynorphin (1-8),1760,–,–,–,12.9,–,–,–,"IC50 [1, 8]: 56.4 nM; IC50 [2, 9]: 71.8 nM; DR with CTAP (mu receptors): 0.98; DR with Nor-BNI (kappa receptors): 18.44; Ke of Nor-BNI (kappa receptors): 1.21; Ratio (after Ke of Nor-BNI) (kappa receptors): 0.050; DR with Naltrindole (delta receptors [3]): 2.77; Ke of Naltrindole (delta receptors [3]): 0.64; Ratio (after Ke of Naltrindole) (delta receptors [3]): 0.033"
Leu-Enkephalin,> 10000,4.63,–,–,1670,–,1.94,21.41,"IC50 [1, 5]: 7.38 nM; IC50 [2, 6]: 87.3 nM; Guinea Pig Ileum Ke of CTAP (mu receptors): 29.38; Guinea Pig Ileum Ratio (CTAP) (mu receptors): 0.659; Guinea Pig Ileum Ratio (Nor-BNI) (kappa receptors): 0.002; Mouse Vas Deferens DR with Naltrindole (delta receptors [3]): 28.07; Mouse Vas Deferens Ke of Naltrindole (delta receptors [3]): 0.038; Mouse Vas Deferens Ratio (Naltrindole) (delta receptors [3]): 0.577"
